This is an account of results in patent US5869500A, “Pyridone compounds useful in treating Alzheimer's disease” (Hoffmann-La Roche Inc., priority 1996, dated 1999).

The test system of experiment [1] is Aβ production in HEK cells over-expressing mutated β-APP (SFAD). Nature of the experiment: Aβ production inhibition, sandwich-ELISA in HEK cells, over-expressed mutated β-APP (SE-SFAD). In kind it is cell-based, human. The conditions noted are these: for IC50: based on the respective plateau of maximum inhibition; for Emax: read-out: SE-SFAD max. inhibition %. An outline of the steps: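 HEK cells expressing recombinant human wild-type or mutated (SFAD) β-APP treated with compound for 24 to 48 hours at 37° C, 10% CO2. IC50 based on plateau of maximum inhibition.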
Background: ELISA stands for enzyme-linked immunosorbent assay.

Experiment [2] deals with Aβ production in HEK cells over-expressing Wild type β-APP. The experiment is described as follows: Aβ production inhibition, sandwich-ELISA in HEK cells which over-express Wild type β-APP (SE-WT). The class given is cell-based, human. The conditions noted are these: Homo sapiens; for IC50: HEK293, based on the respective plateau of maximum inhibition; for Emax: HEK293, maximum inhibition plateau, read-out: SE-WT max. inhibition %. On the procedure: The effect of test substances on the inhibition of Aβ-amyloid production can be measured in the supernatant of cell cultures of β-APP expressed cells using ELISA tests or other quantitative determination methods for β-APP degradation products. Typically, 8×10^5 cells (e.g. HEK cells, which express recombinant human β-APP variants) are plated out in each well of a culture dish having 24 wells in growth media such as e.g. OPTIMEM (Gibco) and the test compound is then added. After an incubation period of 24 to 48 hours at 37° C. in a 10% CO2 atmosphere the supernatant is removed from the cell cultures and the β-APP degradation products (e.g. Aβ or β-[…]) are determined with the aid of ELISA (or sandwich ELISA) analysis or by means of quantitative immunoprecipitation (after metabolic radiolabelling of the cell proteins). Typically, 300 μl of the cell supernatant are tested according to the state of the art for ELISA tests in culture dishes having 96 wells. In the case of sandwich ELISA for Aβ, the binding antibody can be directed against the first 16 amino acids of Aβ-peptide (e.g. 6E10 Senetek, Maryland Heights, Mo.) and the detection antibody can be directed against amino acids 17-40 or 17-42 of Aβ and carries a detection system such as e.g. peroxidase. A simple ELISA test with an antibody, e.g. 22C11 (Boehringer Mannheim), can be used as the test for […]; the second antibody can be an anti-(mouse) Ig having a detection system, such as e.g. peroxidase. The peroxidase reaction can be carried out e.g. using a TMB substrate (BioRAD) and the measurements can be carried out at 650 nm using an ELISA reading apparatus. […] SE-SFAD signifies the Aβ production inhibition measured using sandwich-ELISA in HEK cells, SFAD signifies over-expressed mutated β-APP, and SE-WT signifies the Aβ production inhibition measured using sandwich-ELISA in HEK cells which over-express Wild type β-APP. The IC50 values are based on the respective plateau of maximum inhibition.

Where [3] appears, read: Homo sapiens, HEK293, HEK cells.
Setting [4] is: Homo sapiens, HEK293, HEK cells, maximum inhibition plateau.

Regarding `CON(C)C(=O)c1cc(-c2ccccc2)c(=O)n2ccc3ccsc3c12` [Compound 54, 7--Oxo-8-phenyl-7H-thieno[2,3-a]quinolizine-10-carboxylic acid methoxy-methyl-amide], the 50% inhibitory concentration (IC50) – broadly, the concentration that inhibits the measured activity by half – in experiment [1] (setting [3]) stood at 6 µM; in experiment [2], 3 µM. Further, the Emax was determined as 30% in experiment [1] (setting [4]) and 40% in experiment [2].
On the same counts, the results for `COC1CCCN(C(=O)c2cc(-c3ccccc3)c(=O)n3ccc4ccsc4c23)C1` (stereo not drawn) [Compound 14, 10-(3-Methoxy-piperidine-1-carbonyl)-8-phenyl-thieno[2,3-a]-quinolizine-7-on] are 2.3 µM, 8 µM, 50% and 70%.
`O=C(OCCN1CCOC1=O)c1cc(-c2ccccc2)c(=O)n2ccc3ccsc3c12` [Compound 5, 2-(2-Oxo-oxazolidin-3-yl)-ethyl 7-oxo-8-phenyl-7H-thieno[2,3-a]-quinolizine-10-carboxylate]: the half-maximal inhibitory concentration (IC50) is 1 µM in experiment [1] (setting [3]) and 1.2 µM in experiment [2]. Also, the figures for the Emax in experiment [1] (setting [4]) and in experiment [2] were 25% and 60%, respectively.
Regarding `COCCCN(C)C(=O)c1cc(-c2ccccc2)c(=O)n2ccc3ccsc3c12` [Compound 18, 7-Oxo-8-phenyl-7H-thieno[2,3-a]quinolizine-10-carboxylic acid (3-methoxy-propyl)-methyl-amide], the half-inhibitory concentration (IC50) in experiment [1] (setting [3]) came to 4 µM; in experiment [2], 7 µM. For the same compound, the Emax in experiment [1] (setting [4]) is 30%; in experiment [2], 40%.
In the case of `COC1CCN(C(=O)c2cc(-c3ccccc3)c(=O)n3ccc4ccsc4c23)CC1` [Compound 13, 10-(4-Methoxy-piperidine-1-carbonyl)-8-phenyl-thieno[2,3-a]-quinolizin-7-one], the concentration for half-maximal inhibition (IC50) came out at 5 µM in experiment [1] (setting [3]) and 4 µM in experiment [2]. The Emax in experiment [1] (setting [4]) amounted to 30%; in experiment [2], 80%.
For `COC1CN(C(=O)c2cc(-c3ccccc3)c(=O)n3ccc4ccsc4c23)C1` [Compound 39, 10-(3-Methoxy-azetidine-1-carbonyl)-8-phenyl-thieno[2,3-a]quinolizin-7-one], the values for the IC50 in experiment [1] (setting [3]) and in experiment [2] were 7 µM and 6 µM, respectively. Besides, the results for the Emax in experiment [1] (setting [4]) and in experiment [2] were 30% and 50%, respectively.
On the same counts, the results for `O=C(OCCN1CCCC1=O)c1cc(-c2ccccc2)c(=O)n2ccc3ccsc3c12` [Compound 29, 2-(2-Oxo-pyrrolidin-1-yl)-ethyl 7-oxo-8-phenyl-7H-thieno[2,3-a]-quinolizine-10-carboxylate] are 3 µM, 4.1 µM, 40% and 80%.
With `Cc1cc(C)n(C(=O)c2cc(-c3ccccc3)c(=O)n3ccc4ccsc4c23)n1` [Compound 45, 10-(3,5-Dimethyl-pyrazole-1-carbonyl)-8-phenyl-thieno[2,3-a]-quinolizin-7-one], the IC50 in experiment [1] (setting [3]) amounted to 0.9 µM; in experiment [2], 0.5 µM. For the same compound, the Emax in experiment [1] (setting [4]) turned out to be 40%; in experiment [2], 30%.
The matching figures for `CN(C)CC=CCOC(=O)c1cc(-c2ccccc2)c(=O)n2ccc3ccsc3c12` [Compound 59, 4-Dimethylamino-but-2-enyl 7-oxo-8-phenyl-7H-thieno[2,3-a]-quinolizine-10-carboxylate methanesulphonate]: 5 µM, 7 µM, 100% and 100%.
Regarding `COCC1CCCN1C(=O)c1cc(-c2ccccc2)c(=O)n2ccc3ccc(Cl)cc3c12` (stereo not drawn) [Compound 37, 10-Chloro-1-(2-methoxymethyl-pyrrolidine-1-carbonyl)-3-phenyl-pyrido [2,1-a]isoquinolin-4-one], the figures for the IC50 in experiment [1] (setting [3]) and in experiment [2] were 7 µM and 1 µM, respectively. In addition, the results for the Emax in experiment [1] (setting [4]) and in experiment [2] were 100% and 70%, respectively.
The matching figures for `CN1CCC[C@H]1COC(=O)c1cc(-c2ccccc2)c(=O)n2ccc3ccsc3c12` [Compound 28, 1-Methyl-pyrrolidin-2-(S)-yl-methyl 7-oxo-8-phenyl-7H-thieno[2,3-a]-quinolizine-10-carboxylate]: 9 µM, 2 µM, 100% and 100%.
On the same counts, the results for `COCC1CC(OC)CN1C(=O)c1cc(-c2ccccc2)c(=O)n2ccc3ccsc3c12` (stereo not drawn) [Compound 8, 10-(4-Methoxy-2-methoxymethyl-pyrrolidine-1-carbonyl)-8-phenylthieno[2,3-a]quinolizin-7-one] are 1 µM, 12 µM, 35% and 25%.
Take `O=C1CC[C@H](COC(=O)c2cc(-c3ccccc3)c(=O)n3ccc4ccsc4c23)N1` [Compound 3, 5-Oxo-pyrrolidin-2-(R)-yl-methyl 7-oxo-8-phenyl-7H-thieno[2,3-a]-quinolizine-10-carboxylate]: the half-maximal inhibitory concentration (IC50) worked out at 9.5 µM in experiment [1] (setting [3]) and 1 µM in experiment [2]. For the same compound, the Emax in experiment [1] (setting [4]) worked out at 30%; in experiment [2], 60%.
The matching figures for `CCCOC1CN(C(=O)c2cc(-c3ccccc3)c(=O)n3ccc4ccsc4c23)C1` [Compound 1, 8-Phenyl-10-(3-propoxy-azetidin-1-carbonyl)-thieno[2,3-a]quinolizin-7-one]: 2 µM, 4 µM, 65% and 75%.
The matching figures for `COC(=O)c1cc(-c2ccccc2)c(=O)n2c1-c1[nH]c3ccccc3c1CC2` [Compound 63, Methyl 4-oxo-3-phenyl-4,6,7,12-tetrahydro-indolo[2,3-a]quinolizine-1-carboxylate]: 1 µM, 0.6 µM, 65% and 45%.
In the case of `COC(=O)c1cc(-c2ccccc2OC)c(=O)n2ccc3ccsc3c12` [Compound 129, Methyl 8-(2-methoxy-phenyl)-7-oxo-7H-thieno[2,3-a]quinolizine-10-carboxylate], the results for the IC50 in experiment [1] (HEK cells) and in experiment [2] were 2.8 µM and 1.5 µM, respectively. Further, the “SE-SFAD max. inhibition %” value in experiment [1] (HEK cells, maximum inhibition plateau) is 75%. For the same compound, the Emax in experiment [2] came out at 85%.
For `O=C1CC[C@@H](COC(=O)c2cc(-c3ccccc3)c(=O)n3ccc4ccsc4c23)N1` [Compound 4, 5-Oxo-pyrrolidin-2-(S)-yl-methyl 7-oxo-8-phenyl-7H-thieno[2,3-a]-quinolizine-10-carboxylate], the 50% inhibitory concentration (IC50) in experiment [1] (setting [3]) was found to be 10 µM; in experiment [2], 5 µM. Also, the Emax in experiment [1] (setting [4]) and in experiment [2] was 25% each time.
Turning to `COC[C@H]1CCCN1C(=O)c1cc(-c2ccccc2)c(=O)n2ccc3ccc(Cl)cc3c12` [Compound 38, 10-Chloro-1-(2-(R)methoxymethyl-pyrrolidine-1-carbonyl)-3-phenyl-pyrido [2,1-a]isoquinolin-4-one], the IC50 in experiment [1] (setting [3]) was 7 µM; in experiment [2], 1.5 µM. The Emax turned out to be 100% in experiment [1] (setting [4]) and 70% in experiment [2].
Take `CN(C)C(=O)COC(=O)c1cc(-c2ccccc2)c(=O)n2ccc3ccsc3c12` [Compound 30, Dimethyl-carbamoylmethyl 7-oxo-8-phenyl-7H-thieno[2,3-a]-quinolizine-10-carboxylate]: the half-maximal inhibitory concentration (IC50) in experiment [1] (setting [3]) and in experiment [2] was 5 µM each time. The Emax in experiment [1] (setting [4]) was 25%; in experiment [2] it was 60%.
As to `O=C(c1cc(-c2ccccc2)c(=O)n2ccc3ccsc3c12)n1ccnc1` [Compound 52, 10-(Imidazole-1-carbonyl)-8-phenyl-thieno[2,3-a]quinolizin-7-one], the IC50 is 5 µM in experiment [1] (setting [3]) and 12 µM in experiment [2]. The Emax in experiment [1] (setting [4]) came out at 25%; in experiment [2], 45%.
With `CC(C)C[C@H](N)COC(=O)c1cc(-c2ccccc2)c(=O)n2ccc3ccsc3c12` [Compound 31, 2-(S)-Amino-4-methyl-pentyl 7-oxo-8-phenyl-7H-thieno[2,3-a]-quinolizine-10-carboxylate], the IC50 was determined as 5.3 µM in experiment [1] (setting [3]) and 1.2 µM in experiment [2]. For the same compound, the Emax in experiment [1] (setting [4]) was 100%; in experiment [2] it was 55%.
